# Reference: US20050037382A1, “Methods and compositions for treating and preventing autoimmune disorders” (priority 2003, published 2005)
# System: chronic colitis induced by DSS treatment
# Test: Apyrase administration in DSS-induced chronic colitis (weight)
# Type: in vivo, mice
# Conditions: apyrase 0.4 units/g weight at week five
# Text: Adult mice (55-75 day old) sex-matched hemizygous CD39+/−, CD39−/−, and CD39+/+ littermates were given 3-5% (w/v) DSS in drinking water for seven days to induce a pathological state reminiscent of acute ulcerative colitis. Mice were fasted on day 7, and sacrificed the next day. Tissue was collected for Haematoxylin and Eosin staining, immunohistochemistry staining (for CD39, CD39L1, P-selectin, Fibrin, and P2Y1, for example), Western blot analysis, and NTPDase activity. To induce chronic ulcerative colitis, mice were treated with 3% DSS for seven days followed by a one week rest period. DSS treatment was resumed for seven days followed by another rest period of seven days. Treatment was resumed in the fifth week for seven days. At least six age- and sex-matched hemizygous CD39+/−, CD39−/−, and CD39+/+ mice were studied at the end of seven days of DSS treatment (acute colitis) or 5 week DSS treatment (chronic colitis). Mice were housed in standard cages and were allowed to drink and feed ad libitum. Animals were weighed daily. To test the hypothesis that the administration of an NTPDase can delay the damage caused by colitis, CD39+/+ and CD39+/− mice, following the induction of chronic colitis by DSS treatment, were administered with apyrase, an NTPDase (see FIGS. 4A and 4B). Apyrase was administered at 0.4 units/g weight at week five following the initial treatment with DSS.
substance,measurement,setting,value
apyrase,weight following apyrase treatment,CD39+/+ mice,significant gain in weight
same,weight following apyrase treatment,"CD39−/+ (hemizygous) mice, compared with effect in CD39+/+ mice",further enhanced
